Key:
[1] = system: gastric acid secretion (histamine-stimulated); assay: Effects on Gastric Acid Secretion of Anesthesia Fistula Rat by Histamine; format: in vivo, rat (male SD); conditions: 30 mg/kg, histamine infusion, acid output 1 to 4 hours after administration
Description: The aggressive factor inhibition action was evaluated from the effects on the gastric acid secretion of anesthesia fistula rats by histamine, while the protective factor potentiation action was evaluated from the effects observed in a hydrochloric acid-ethanol ulcer model. In the Tables, the column of test compounds indicates Example numbers where the compounds are prepared. Male SD rats (Japan Charles River Co., Ltd.) each weighing 180 to 200 g were fasted for 24 hours before celiotomy with etherrization. A feeding tube (fr. 3.5) for injecting test medicines was inserted into the duodenum, and the pylorus was ligatured. A polyethylene tube (inner diameter: 7 mm) was used in the anterior stomach and gastric fistula was performed. After washing the inside of the stomach with heated physiological salt solution (37° C.) several times, the body was closed. A tube with a fin was inserted into the caudal vein and was fastened with a tape and it was connected to a infusion pump (Harvard). The rats were enclosed in a KN Ballman II cage (Natsume Seisakusho). Gastric juice flowed from the fistula was collected with a […] one hour. Starting form one hour after the operation, histamine was continuously injected at a rate of 1.4 ml/hour through the caudal vein. Then, test compounds suspended in 0.5% sodium caboxy methyl cellulose (Na-CMC) were administered one hour after the start of the histamine injection. The gastric juice thus extracted in a period from one hour after the administration of the chemical to four hours after that was titrated by using an automatic titration aparatus (Kyoto Electronic) with 0.1N NaOH to adjust pH 7, and the quantity of the gastric juice was measured to obtain the total acid output. […] [formula]

[2] = system: ulcer formation caused by hydrochloric acid-ethanol; assay: Hydrochloric Acid-Ethanol Ulcer Test; format: in vivo, rat (male SD); conditions: 100 mg/kg, oral, 30 minutes before hydrochloric acid-ethanol; rat
Description: The aggressive factor inhibition action was evaluated from the effects on the gastric acid secretion of anesthesia fistula rats by histamine, while the protective factor potentiation action was evaluated from the effects observed in a hydrochloric acid-ethanol ulcer model. In the Tables, the column of test compounds indicates Example numbers where the compounds are prepared.
Male SD rats each weighing 170 to 190 g were fasted for 24 hours, and 1 ml of 150 mM hydrochloric acid-60% ethanol was orally administered to each rat. After one hour, rats were clubbed to death, and the stomach was extracted. 10 ml of 2% formalin solution was applied to the stomach for fixing for 10 minutes. The length (mm) of the injuries in the tunica mucosa taken place in the glandular stomach was measured under a stereoscopic microscope. The total length of the injuries of the individual was taken as the ulcer index.
Test compounds or control (1% Na-CMC) were orally administered in an amount of 0.5 ml/100 g, 30 minutes before the administration of hydrochloric acid-ethanol.

[3] = system: ICR:Crj 5 week old male mice; assay: Toxicity test, repeated oral administration for 14 days; format: in vivo, mouse (ICR:Crj; conditions: 500 mg/kg/day
Description: (§1) The compounds according to Examples 2, 7, 8 and 12 were respectively suspended in 3% gum arabic solution and continuously, forcedly and orally administrated to three ICR:Crj 5 week old male mice for 14 days at a dose of 500 mg/kg/day.

[4] = Acute toxicity test by oral administration; format: in vivo
Description: as §1

SMILES | Gastric acid secretion inhibition effect (%) [1] | Ulcer Inhibition Rate(%) [2] | death [3] | LD50 ([4]; mouse, in vivo, po) | LD50 value ([4]; acute, oral administration)
CN/C(=N/CCSCc1nc[nH]c1C)NC#N [Cimetidine, reference compound] | 32.3% | 22.7% |  |  | 
O=C(CSCCO)NCCCOc1cccc(CN2CCCCC2)c1 [Example 2, N-[3-[3-(piperidinomethyl)phenoxy]propyl]-2-(2-hydroxyethyl-1-thio)acetamide] | 79.5% | 72.5% | No rat died | 2380 mg/kg | 
O=C(CS(=O)(=O)CCO)NCCCOc1cccc(CN2CCCCC2)c1 [Example 7, N-[3-[3-(piperidinomethyl)phenoxy]propyl]-2-(2-hydroxyethylsulfonyl)acetamide] | 59.4% |  | No rat died |  | 
O=C(CSCCO)NCCCOc1cccc(CN2CCCC2)c1 [Example 8, N-[3-[3-(1-pyrrolidinylmethyl)phenoxy]propyl]-2-(2-hydroxyethyl-1-thio)acetamide] | 70.9% |  | No rat died |  | 
CC(=O)OCCSCC(=O)NCCCOc1cccc(CN2CCCC2)c1 [Example 12, N-[3-[3-(1-pirrolidinylmethyl)phenoxy]propyl]-2-(2-acetoxyethyl-1-thio)acetamide] | 55.4% |  | No rat died |  | 
O=C(CO)NCCCOc1cccc(CN2CCCCC2)c1 [Roxatidine, reference compound] | 68.8% | 69.4% |  |  | 755 mg/kg
